Among the test systems are A498 renal; BT-549 breast; CAKI-1 renal; HCT-116 colon; HOP-62 NSCLC; HT29 colon; MALME-3M melanoma; NCI-H23 lung; NCI-H460 lung; NCI-H522 lung; OVCAR-3 ovarian; SF-295 CNS; SK-MEL-28 melanoma; SNB-19 CNS; SNB-75 CNS; T-47D breast; U251 CNS.
Assay in all cases: NCI tumour cell line growth inhibition, 48 h

The structures appear in SMILES notation.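 Step 1: Grow cells in 96-well plates. Step 2: Expose to compound for 48 hours at 5 concentrations. Step 3: Interpolate endpoints linearly; if unreached, use highest concentration. TGI denotes the concentration required for complete inhibition of growth.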 Bounds are passed on as bounds.

For the compound `CCCCCCCC(CC(=O)NC(CO)C(=O)NC(CO)CC(C)C)OC(=O)CC(CCCCCCC)OC(=O)CC(CCCCCCC)OC1OC(C)C(O)C(OC2OC(C)C(O)C(OC(C)=O)C2O)C1O` (centres undefined), the TGI amounted to 26.1 µM in the test with A498 renal; 19.9 µM with BT-549 breast; 30.2 µM with CAKI-1 renal; 25.8 µM in the test with HCT-116 colon; 24.8 µM in the test with HOP-62 NSCLC; 20.4 µM with HT29 colon. For the same compound, the TGI in the test on MALME-3M melanoma worked out at 33.4 µM; in the test with NCI-H23 lung it was 27.9 µM; in the test with NCI-H460 lung it was 26.1 µM; with NCI-H522 lung, 28.4 µM; in the test with OVCAR-3 ovarian, 23 µM; in the test on SF-295 CNS it was 30.2 µM. The TGI came to 24.6 µM in the test on SK-MEL-28 melanoma; 20.4 µM in the test with SNB-19 CNS; 19.1 µM in the test on SNB-75 CNS; 26.8 µM in the test with T-47D breast; 17.2 µM in the test on U251 CNS.
As for `O=c1[nH]c(=O)n(C/C=C/CO)nc1Br`, the TGI with A498 renal, in the test with BT-549 breast, with CAKI-1 renal, with HCT-116 colon, with HOP-62 NSCLC and with HT29 colon was over 100 µM in each case. Also, the TGI in the test on MALME-3M melanoma, with NCI-H23 lung, in the test on NCI-H460 lung, in the test on NCI-H522 lung, in the test with OVCAR-3 ovarian and in the test on SF-295 CNS was over 100 µM in each case. In addition, the TGI with SK-MEL-28 melanoma, with SNB-19 CNS, with SNB-75 CNS, with T-47D breast and in the test on U251 CNS was over 100 µM throughout.
Take `O=C(CSc1ncccn1)N/N=C/c1ccccc1OCc1ccccc1`: the TGI in the test with A498 renal is 71.8 µM; in the test with BT-549 breast, 70.4 µM; in the test on CAKI-1 renal, over 100 µM; in the test with HCT-116 colon it was 53.4 µM; in the test on HOP-62 NSCLC it was 83.1 µM; in the test on HT29 colon, over 100 µM. The TGI in the test on MALME-3M melanoma was over 100 µM; in the test with NCI-H23 lung it was over 100 µM; with NCI-H460 lung, 94.9 µM; with NCI-H522 lung, 79.2 µM; in the test on OVCAR-3 ovarian, 33.9 µM; in the test with SF-295 CNS it was 50.9 µM. Moreover, the TGI in the test with SK-MEL-28 melanoma was over 100 µM; in the test on SNB-19 CNS, over 100 µM; with SNB-75 CNS, 67.7 µM; in the test on T-47D breast, 70.7 µM; in the test on U251 CNS, 81.7 µM.
Take `CC(=O)Nc1ccc(-c2nc3ccccc3s2)cc1Br`: the TGI in the test on A498 renal was 32.1 µM; in the test with BT-549 breast, over 100 µM; in the test on CAKI-1 renal it was over 88.1 µM; in the test with HCT-116 colon, over 100 µM; in the test on HOP-62 NSCLC it was 56.7 µM; with HT29 colon, over 100 µM. Moreover, the TGI was over 100 µM in the test on MALME-3M melanoma; over 97.3 µM in the test with NCI-H23 lung; over 100 µM in the test on NCI-H460 lung; over 100 µM in the test with NCI-H522 lung; over 100 µM in the test with OVCAR-3 ovarian; over 100 µM with SF-295 CNS. The TGI was over 100 µM in the test with SK-MEL-28 melanoma; over 93.4 µM with SNB-19 CNS; 78 µM in the test on SNB-75 CNS; over 100 µM with T-47D breast; over 100 µM in the test with U251 CNS.
In the case of `COC(=O)c1ccccc1/C=C1\Cc2c(ccc3c2CCC3)C1=O`, the TGI in the test on A498 renal, in the test with BT-549 breast, with CAKI-1 renal, in the test on HCT-116 colon, with HOP-62 NSCLC and in the test on HT29 colon was over 100 µM throughout. For the same compound, the TGI with MALME-3M melanoma, in the test on NCI-H23 lung, with NCI-H460 lung, in the test with NCI-H522 lung, in the test on OVCAR-3 ovarian and with SF-295 CNS was over 100 µM in each case. In addition, the TGI with SK-MEL-28 melanoma, in the test with SNB-19 CNS, in the test on SNB-75 CNS, in the test on T-47D breast and in the test on U251 CNS was over 100 µM throughout.
As for `C=CCN1C(=O)/C(=C/c2ccc(Cl)cc2)N=C1SC/C=C/C`, the TGI in the test with A498 renal, in the test with BT-549 breast, in the test on CAKI-1 renal, with HCT-116 colon, in the test with HOP-62 NSCLC and in the test on HT29 colon was over 100 µM throughout. The TGI in the test with MALME-3M melanoma, with NCI-H23 lung, in the test on NCI-H460 lung, in the test on NCI-H522 lung, with OVCAR-3 ovarian and in the test on SF-295 CNS was over 100 µM throughout. For the same compound, the TGI with SK-MEL-28 melanoma was over 100 µM; in the test with SNB-19 CNS, over 100 µM; in the test with SNB-75 CNS, over 100 µM; in the test with T-47D breast, over 100 µM; with U251 CNS it was 84.8 µM.
Turning to `O=C(O)c1cccc(Nc2c(C(=O)O)cccc2[N+](=O)[O-])c1`, the TGI in the test on A498 renal, in the test with BT-549 breast, with CAKI-1 renal, in the test on HCT-116 colon, in the test on HOP-62 NSCLC and with HT29 colon was over 100 µM in each case. The TGI in the test with MALME-3M melanoma, in the test with NCI-H23 lung, in the test with NCI-H460 lung, in the test on NCI-H522 lung, in the test with OVCAR-3 ovarian and with SF-295 CNS was over 100 µM throughout. Also, the TGI in the test with SNB-19 CNS, with SNB-75 CNS and in the test on T-47D breast was over 100 µM each time.
In the case of `Cc1cc(S(=O)(=O)Nc2nc(N)nc(N3N=CCC3C)n2)c(SCC(=O)O)cc1Cl` (centres undefined), the TGI with A498 renal, in the test with BT-549 breast, with CAKI-1 renal, in the test on HCT-116 colon, in the test on HOP-62 NSCLC and with HT29 colon was over 10 µM each time. In addition, the TGI with MALME-3M melanoma, in the test with NCI-H23 lung, in the test on NCI-H460 lung, with NCI-H522 lung, in the test on OVCAR-3 ovarian and in the test with SF-295 CNS was over 10 µM throughout. Besides, the TGI with SK-MEL-28 melanoma, with SNB-19 CNS, in the test on SNB-75 CNS, with T-47D breast and in the test on U251 CNS was over 10 µM in each case.

The values above are taken from PubChem BioAssay (NCI).
